Measured values published in the supplement of paper PMC10307832.

Key:
Assay in all cases: relative viability (nuclei count vs DMSO), 5 days (fraction); higher = more cells survive
VE-821 + Pemetrexed = compound: CS(=O)(=O)c1ccc(-c2cnc(N)c(C(=O)Nc3ccccc3)n2)cc1 [VE-821] + Nc1nc2[nH]cc(CCc3ccc(C(=O)N[C@@H](CCC(=O)O)C(=O)O)cc3)c2c(=O)[nH]1 [Pemetrexed] (partner 0.2 µM)
Method in brief: (§1)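 One day after seeding in 1536-well plates, lung cancer cell lines were dosed by pin tool. Dosing was either single-drug or a fixed anchor-drug dose plus five library-drug doses (not always all listed) in √10 steps. After 5 days, nuclei were stained in one fix-and-stain step and counted on 4× images, and relative viability is the nuclei count of treated wells over that of vehicle wells, given as the median of duplicate plates.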

VE-821 + Trametinib = compound: CS(=O)(=O)c1ccc(-c2cnc(N)c(C(=O)Nc3ccccc3)n2)cc1 [VE-821] + CC(=O)Nc1cccc(-n2c(=O)n(C3CC3)c(=O)c3c(Nc4ccc(I)cc4F)n(C)c(=O)c(C)c32)c1 [Trametinib] (partner 0.02 µM)
Method in brief: as §1

Vismodegib + AZD7762 = compound: CS(=O)(=O)c1ccc(C(=O)Nc2ccc(Cl)c(-c3ccccn3)c2)c(Cl)c1 [Vismodegib] + NC(=O)Nc1cc(-c2cccc(F)c2)sc1C(=O)N[C@H]1CCCNC1 [AZD7762] (partner 0.2 µM)
Method in brief: as §1

Vismodegib + Luminespib = compound: CS(=O)(=O)c1ccc(C(=O)Nc2ccc(Cl)c(-c3ccccn3)c2)c(Cl)c1 [Vismodegib] + CCNC(=O)c1noc(-c2cc(C(C)C)c(O)cc2O)c1-c1ccc(CN2CCOCC2)cc1 [Luminespib] (partner 0.01 µM)
Method in brief: as §1

Row | Cell Line | relative viability (VE-821 + Pemetrexed; first compound 0.08 µM) | relative viability (VE-821 + Pemetrexed; first compound 0.253 µM) | relative viability (VE-821 + Pemetrexed; first compound 0.8 µM) | relative viability (VE-821 + Pemetrexed; first compound 2.53 µM) | relative viability (VE-821 + Pemetrexed; first compound 8 µM) | relative viability (VE-821 + Trametinib; first compound 0.08 µM) | relative viability (VE-821 + Trametinib; first compound 0.253 µM) | relative viability (VE-821 + Trametinib; first compound 0.8 µM) | relative viability (VE-821 + Trametinib; first compound 2.53 µM) | relative viability (VE-821 + Trametinib; first compound 8 µM) | relative viability (Vismodegib + AZD7762; first compound 0.08 µM) | relative viability (Vismodegib + AZD7762; first compound 0.253 µM) | relative viability (Vismodegib + AZD7762; first compound 0.8 µM) | relative viability (Vismodegib + AZD7762; first compound 2.53 µM) | relative viability (Vismodegib + AZD7762; first compound 8 µM) | relative viability (Vismodegib + Luminespib; first compound 0.08 µM) | relative viability (Vismodegib + Luminespib; first compound 0.253 µM) | relative viability (Vismodegib + Luminespib; first compound 0.8 µM) | relative viability (Vismodegib + Luminespib; first compound 2.53 µM) | relative viability (Vismodegib + Luminespib; first compound 8 µM)
1 | NCI-H1993 | 0.6 | 0.596 | 0.35 | 0.638 | 0.601 | 0.534 | 0.604 | 0.61 | 0.505 | 0.502 | 0.751 | 0.912 | 0.84 | 0.768 | 0.712 | 0.799 | 0.865 | 0.747 | 0.814 | 0.796
2 | NCI-H2126 | 0.687 | 0.585 | 0.693 | 0.475 | 0.31 | 0.54 | 0.54 | 0.549 | 0.495 | 0.533 | 1.08 | 0.912 | 0.978 | 0.933 | 1.03 | 0.84 | 0.921 | 0.809 | 0.851 | 0.82
3 | NCI-H1793 | 1.2 | 0.769 |  | 1.13 | 0.565 | 0.605 | 0.408 |  | 0.526 | 0.618 |  | 0.569 | 0.409 | 0.389 | 0.327 |  | 0.214 | 0.189 | 0.482 | 0.19
4 | LC-2-ad | 0.265 | 0.286 | 0.272 | 0.264 | 0.24 | 0.985 | 0.886 | 0.879 | 0.912 | 0.956 | 0.823 | 0.822 | 0.84 | 0.864 | 0.751 | 1.01 | 0.957 | 0.975 | 0.955 | 1.06
5 | NCI-H647 | 0.157 | 0.139 | 0.125 | 0.0986 | 0.0738 | 0.62 | 0.419 | 0.352 | 0.389 | 0.234 | 0.474 | 0.482 | 0.415 | 0.375 | 0.51 | 0.505 | 0.227 | 0.219 | 0.125 | 0.181
6 | LCLC-97TM1 | 0.191 | 0.186 | 0.164 | 0.189 | 0.125 | 0.225 | 0.152 | 0.194 | 0.227 | 0.217 | 0.292 | 0.262 | 0.327 | 0.297 | 0.286 | 0.699 | 0.725 | 0.746 | 0.76 | 0.826
7 | LK-2 | 0.357 | 0.295 | 0.299 | 0.267 | 0.262 | 1.02 | 0.775 | 0.734 | 0.897 | 0.818 | 0.401 | 0.479 | 0.419 | 0.387 | 0.447 | 0.175 | 0.185 | 0.207 | 0.151 | 0.214
8 | BEN | 0.839 | 0.678 | 0.719 | 0.799 | 0.581 | 1.08 | 1.02 | 0.982 | 1.14 | 1.09 | 0.792 | 0.68 | 0.77 | 0.684 | 0.701 | 0.363 | 0.293 | 0.475 | 0.244 | 0.326
9 | NCI-H650 | 0.934 | 0.846 | 1.02 | 0.9 | 0.835 | 0.99 | 1.01 | 1.11 | 1.02 | 1.08 | 0.958 | 0.925 | 0.864 | 0.953 | 1.06 | 0.843 | 0.791 | 0.638 | 0.802 | 0.865
10 | EKVX | 0.422 | 0.373 | 0.419 | 0.341 | 0.227 | 0.347 | 0.317 | 0.298 | 0.376 | 0.3 |  | 0.774 | 0.717 | 0.606 | 0.735 | 0.749 | 0.797 | 0.929 | 0.864 | 0.896
11 | NCI-H1395 | 0.792 | 0.789 | 0.827 | 0.745 | 0.486 | 1.11 | 0.988 | 0.913 | 1.02 | 0.763 | 0.42 | 0.397 | 0.412 | 0.455 | 0.41 | 0.708 | 0.764 | 0.535 | 0.624 | 0.621
12 | NCI-H23 | 0.919 | 0.838 | 0.55 | 0.463 | 0.272 | 0.459 | 0.457 | 0.34 | 0.278 | 0.272 | 0.264 | 0.34 | 0.276 | 0.23 | 0.232 | 0.25 |  | 0.198 | 0.258 | 0.227
13 | LU99A | 0.191 | 0.156 | 0.16 | 0.125 | 0.113 | 0.532 | 0.541 | 0.572 | 0.528 | 0.29 | 0.333 | 0.324 | 0.537 | 0.353 | 0.325 | 0.257 | 0.233 | 0.323 | 0.257 | 0.305
14 | NCI-H1915 | 0.499 | 0.432 | 0.344 | 0.311 | 0.23 | 0.331 | 0.288 | 0.281 | 0.349 | 0.303 | 0.724 | 0.667 | 0.714 | 0.716 | 0.749 | 0.759 | 0.758 | 0.785 | 0.837 | 0.769
15 | EMC-BAC-2 | 0.45 | 0.391 | 0.427 | 0.371 | 0.308 | 0.925 | 0.856 | 0.984 | 1.02 | 0.966 | 1.16 | 1.1 | 1.06 | 1.07 | 1.08 | 1.14 | 1.07 | 1.22 | 1.12 | 1.21
16 | 201T | 0.333 | 0.303 | 0.324 | 0.293 | 0.231 | 0.743 | 0.721 | 0.725 | 0.734 | 0.693 | 0.624 | 0.623 | 0.696 | 0.622 | 0.581 | 1.02 | 1 | 1.07 | 1.11 | 0.968
17 | NCI-H1944 | 0.693 | 0.695 | 0.495 | 0.384 | 0.172 | 0.401 | 0.445 | 0.432 | 0.399 | 0.364 | 0.492 | 0.557 | 0.408 |  | 0.505 | 0.729 | 0.716 | 0.782 | 0.758 | 0.83
18 | NCI-H441 | 0.283 | 0.264 | 0.24 | 0.276 | 0.264 | 0.547 | 0.516 | 0.371 | 0.57 | 0.38 | 1.1 |  | 1.05 | 1.01 | 1.03 | 0.348 | 0.281 | 0.284 | 0.304 | 0.38
19 | NCI-H1437 | 0.331 | 0.316 | 0.281 | 0.173 | 0.187 | 0.533 | 0.445 | 0.498 | 0.566 | 0.376 | 1.02 | 1.11 | 1.1 | 1.02 | 1.02 | 0.956 | 1.13 | 1.1 | 1.09 | 1.07
20 | EPLC-272H | 0.347 | 0.36 | 0.218 | 0.141 | 0.0907 | 0.291 | 0.28 | 0.273 | 0.289 | 0.27 | 0.3 | 0.166 | 0.304 | 0.163 | 0.257 | 0.298 | 0.224 | 0.263 | 0.235 | 0.442
21 | LOU-NH91 | 0.385 | 0.355 | 0.345 | 0.323 | 0.4 | 0.813 | 0.784 | 0.776 | 0.821 | 0.752 | 0.802 | 0.752 | 0.727 | 0.771 | 0.789 | 0.28 | 0.334 | 0.352 | 0.366 | 0.301
22 | RERF-LC-KJ | 0.495 | 0.504 | 0.46 | 0.457 | 0.376 | 0.935 | 0.788 | 0.704 | 0.81 | 0.69 | 1.09 | 0.881 | 0.959 | 0.974 | 0.967 | 1.18 | 1.21 | 1.16 | 1.24 | 1.22
23 | NCI-H1975 | 0.297 | 0.282 | 0.264 | 0.213 | 0.167 | 0.359 | 0.37 | 0.199 | 0.352 | 0.227 | 0.689 | 0.649 | 0.642 | 0.729 | 0.631 | 0.143 | 0.185 | 0.205 | 0.218 | 0.259
24 | NCI-H2170 | 0.277 | 0.23 | 0.281 | 0.234 | 0.177 | 0.977 | 0.865 | 0.947 | 0.819 | 0.629 | 0.913 | 0.838 | 0.974 | 0.866 | 0.909 | 0.677 | 0.513 | 0.762 | 0.645 | 0.7
25 | HOP-62 | 0.305 | 0.336 | 0.244 | 0.235 | 0.223 | 0.402 | 0.413 | 0.351 | 0.403 | 0.429 | 0.591 | 0.41 | 0.798 | 0.691 | 0.423 | 0.916 | 0.914 | 0.981 | 0.93 | 0.877
26 | HCC-15 | 0.219 | 0.23 | 0.21 | 0.211 | 0.179 | 0.354 | 0.334 | 0.39 | 0.499 | 0.487 | 1.17 | 1.14 | 1.19 | 1.21 | 1.21 | 0.17 | 0.267 | 0.254 | 0.508 | 0.29
27 | A-427 | 0.997 | 0.949 | 0.947 | 0.998 | 0.474 | 0.868 | 0.676 | 0.812 | 0.686 | 0.495 | 0.739 | 0.706 | 0.805 | 0.619 | 0.801 | 0.912 | 0.831 | 0.856 | 0.876 | 0.824
